Data published in PMC9510126, “Hydrophobicity is a key determinant in the activity of arginine-rich cell penetrating peptides” (Scientific Reports, 2022).
Entries after “also recorded” stand apart in the source; their conditions may differ. Ends that are not written are not given here.

What was measured:
MDA-MB-231 cells = assay: Delivery of TMR-k5 probe into live cells (nuclear staining); type: cell-based, human; details: MDA-MB-231, d(X)TAT at various concentrations + TMR-k5 20 μM, 1 h, fluorescence microscopy, biological triplicates
Source text: To test the relative delivery efficiency of the d(X)TAT peptides, the cell lines MDA-MB-231 (epithelial-like, human breast cancer, spindle-shaped) and Neuro-2a (mouse neuroblastoma with neuronal and amoeboid stem cell morphology) were chosen. These cell lines are routinely used in cancer research, neuroscience, and toxicology. In the context of this study, we rationalized that the distinct differences in origin and characteristics between MDA-MB-231 and Neuro-2a properties may be useful to assess the generality of the results obtained. MDA-MB-231 or Neuro-2a cells were incubated with d(X)TAT peptides at various concentrations and TMR-k5 (20 μM) for 1 h. Cells were then washed, incubated with the DNA stain Hoechst and the live/dead marker SYTOX green (or SYTOX blue), and imaged by fluorescence microscopy. The localization of TMR-k5 in individual nuclei was then assessed by measuring the overlap between TMR and Hoechst signals (Fig. 2, Figure S13). […] This is because, in our experience, dfTAT and dfTAT analogs display a threshold behavior where, below a certain endosomal concentration, endosomal leakage is not achieved. In contrast above this threshold most late endosomes are permeabilized. […] Our rationale was therefore to titrate cells with different concentrations of d(X)TAT agents, monitor how many cells display cytosolic/nuclear delivery of TMR-k5, and compare the different d(X)TAT peptides.
MDA-MB-231 and Neuro2a cells obtained from ATCC (breast cancer-derived epithelial) were cultured in humidified atmosphere at 5% CO2 and 37 °C. Cells were seeded in plastic 48-well plates (Fisher) for quantitative analysis or 8-well Labtek II plates (Fisher) for qualitative imaging at 100× magnification. The cells were grown to 80–90% confluency in a 37 °C humidified atmosphere containing 5% CO2. Cells were washed three times with Leibovitz’s L15 media (L15) (Fisher). Cells were then incubated with peptide and 20 µM of the TMR-k5 pentalysine probe at 37 °C for 1 h. This was followed by washing the cells three times with L15 supplemented with heparin (Sigma-Aldrich) (1 mg/mL) and an extra L15 wash. […] Additionally, the cell permeable dye Hoechst 33342 (Thermo Fisher Scientific o) was used for nuclear staining. Cells were imaged using an EVOS FL Auto 2 inverted microscope (Thermo Fisher Scientific). The microscope is equipped with a heating chamber maintained at 37 °C. Images were acquired using bright field imaging and five fluorescence filter sets: CFP (Ex = 436 ± 10 nm, Em = 480 ± 20 nm), RFP (Ex = 560 ± 20 nm, Em = 630 ± 35 nm), FITC (Ex = 488 ± 10 nm Em = 520 ± 20 nm), DAPI (Ex = 350 ± 50 nm, Em = 460 ± 25 nm), […]. For image viewing and processing individual images, the Celleste 4.0 software (Thermo Fisher Scientific) was used. Nuclear regions in 20× images where identified using Hoechst staining (the quantification process is described in Figure S13). The intensity of these objects in the TMR channel was then determined using the Celleste software. Cells stained by the SYTOX or DRAQ dyes were considered dead and not counted as positive for delivery. Cells displaying a nuclear TMR-k5 fluorescence above the fluorescence threshold determined for TMR-k5 alone were considered positive for delivery (if excluding SYTOX or DRAQ7 stain, and if visually showing stained nucleoli for confirmation of intracellular localization). The percentage of cells positive for TMR-k5 nuclear staining was then calculated, using Hoechst-stained cells to count the total number of cells present. […] Instead, this assay quantifies the number of cells in which the nuclear fluorescence of TMR-k5 is above a detection threshold. This threshold is dependent on the microscope, imaging conditions, and the concentration of TMR-k5 used during incubation (Figure S13). The reproducibility of all the experiments was assessed by performing experiments with independent batches of cell cultures on three different days (i.e., biological triplicates). […]

[1] = Zeta potential of BMP LUVs in contact with peptides; type: binding; details: 0.33 µM peptide, 50 µM lipid (P:L 1:150), PBS pH 5.5, 25 °C, triplicate
Procedure: The interaction partners of CPPs that may mediate direct plasma membrane translocation remain undefined. It is therefore unclear which liposome system can be used to probe this activity. […] This permeabilization is consistent with a leaky fusion process, where peptide-induced contact between liposomes is required for leakage. In order to assess whether similar processes are involved with peptides of the d(X)TAT series, LUVs were loaded with calcein to probe leakage. LUVs were prepared with either 65:15:20 PC:PE:Chol or 77:19:4 BMP:PC:PE, lipid compositions consistent with plasma membrane /early endosomes (PM/EE) bilayers or late endosome (LE) bilayers, respectively[36],[37]. Peptides were added to liposomes suspensions at various peptide-to-lipid ratios, and the release of calcein was monitored by gel filtration. […] The mixtures were then added to a folded capillary zeta cell for measurement on a Zetasizer Nano-zs (Malvern). Instrument was set to hold at 25 °C and automatically determine the optimal voltage and attenuator positions for each measurement. Each sample was set to be measured three times by the instrument and the average of these measurements was used to determine the zeta potential for a single sample. This experiment was performed in triplicate for each condition.

Substance: d(K(Ac))TAT: disulfide dimer of CXRKKRRQRRRG with X = lysine conjugated to an acetyl group (CK(Ac)RKKRRQRRRG-NH2; also: disulfide dimer)
- TMR-k5 delivery activity (cells with TMR-k5 nuclear staining) (MDA-MB-231 cells): little to no TMR-k5 delivery is detected; also recorded: no detectable delivery activity; also recorded: does not have a delivery activity detectable
- effect on apparent zeta potential of BMP-rich LUVs [1]: largest effect
